Results published in US12410208B2, “(2-acetamidyl)thio-beta-D-galactopyranoside derivatives” (Idorsia Pharmaceuticals Ltd, priority 2020, dated 2025).
Read-outs that look alike come from different tables or passages of the source.

Experiments:
human Gal-1 (hGal-1) = human Gal-1 (hGal-1) (Homo sapiens, UniProt P09382); test: Competitive binding assay: biotinylated hGal-1 binding to microplate-adsorbed asialofetuin (ASF), spectrophotometric; details: hGal-1 binding to asialofetuin; Table 15; R and S epimers of selected Examples also listed; read-out: IC50 (Galectin-1 inhibition)
In short: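 Spectrophotometric competition readout with ABTS after streptavidin-peroxidase (80 ng/mL, 1 h, 4 °C) detection of bound biotinylated hGal-1.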

[1] = target: biotinylated human Gal-3 (hGal-3) (Homo sapiens, UniProt P17931); test: Competitive binding assay: biotinylated hGal-3 binding to microplate-adsorbed asialofetuin (ASF), spectrophotometric
In short: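 Serially diluted compounds competed with asialofetuin on the plate for biotinylated human Gal-3 during a 3 h incubation at 4° C. Streptavidin-peroxidase with ABTS gave the spectrophotometric signal. IC50 values were averaged over repeat runs.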

[2] = Table 11, hGal-3, read-out: IC50 (Gal-3 inhibition)
[3] = Table 8, hGal-3, read-out: IC50 (Gal-3 inhibition)
[4] = Gal-3 inhibition, Table 5, read-out: IC50

human Gal-1 (hGal-1), sequence (P09382 whole entry): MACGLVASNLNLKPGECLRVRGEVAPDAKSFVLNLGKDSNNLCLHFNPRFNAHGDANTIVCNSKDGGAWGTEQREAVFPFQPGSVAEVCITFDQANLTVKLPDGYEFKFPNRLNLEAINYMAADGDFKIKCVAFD
biotinylated human Gal-3 (hGal-3), sequence (P17931 whole entry): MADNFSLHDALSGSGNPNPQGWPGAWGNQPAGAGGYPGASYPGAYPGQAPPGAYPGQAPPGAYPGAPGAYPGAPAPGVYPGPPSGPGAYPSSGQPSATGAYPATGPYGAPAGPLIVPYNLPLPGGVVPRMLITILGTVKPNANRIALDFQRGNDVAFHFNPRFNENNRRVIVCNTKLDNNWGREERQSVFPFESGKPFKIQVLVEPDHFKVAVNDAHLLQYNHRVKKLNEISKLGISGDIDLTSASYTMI

Row | Compound | IC50 (human Gal-1 (hGal-1)) | IC50 [1, 2] | IC50 [1, 3] | IC50 [1, 4]
1 | CCN(C)C(=O)C(S[C@@H]1O[C@H](CO)[C@H](O)[C@H](n2cc(-c3cc(C)cc(C#N)c3)nn2)[C@H]1O)C1(O)CCOCC1 (stereo partly drawn) [Example 19.41.203., 2-(((2S,3R,4S,5R,6R)-4-(4-(3-Cyano-5-methylphenyl)-1H-1,2,3-triazol-1-yl)-3,5-dihydroxy-6-(hydroxymethyl)tetrahydro-2H-pyran-2-yl)thio)-N-ethyl-2-(4-hydroxytetrahydro-2H-pyran-4-yl)-N-methylacetamide] | 0.15 µM | 0.15 µM |  | 
2 | CCN(C)C(=O)C(S[C@@H]1O[C@H](CO)[C@H](O)[C@H](n2cc(-c3cc(C)cc(F)c3)nn2)[C@H]1O)C1(O)CCOCC1 (stereo partly drawn) [Example 20.41.203., N-ethyl-2-(((2S,3R,4S,5R,6R)-4-(4-(3-Fluoro-5-methylphenyl)-1H-1,2,3-triazol-1-yl)-3,5-dihydroxy-6-(hydroxymethyl)tetrahydro-2H-pyran-2-yl)thio)-2-(4-hydroxytetrahydro-2H-pyran-4-yl)-N-methylacetamide] | 0.18 µM | 0.06 µM |  | 
3 | (2R,3R,4S,5R,6S)-2-(Acetoxymethyl)-6-(((R)-2-(ethyl(methyl)amino)-1-(3-hydroxy-1-(methoxycarbonyl)azetidin-3-yl)-2-oxoethyl)thio)-4-(4-(3,4,5-trifluorophenyl)-1H-1,2,3-triazol-1-yl)tetrahydro-2H-pyran-3,5-diyl diacetate [Example 2.58.203R.] | 1.18 µM |  | 0.45 µM | 
4 | (2R,3R,4S,5R,6S)-2-(Acetoxymethyl)-6-(((S)-2-(ethyl(methyl)amino)-1-(3-hydroxy-1-(methoxycarbonyl)azetidin-3-yl)-2-oxoethyl)thio)-4-(4-(3,4,5-trifluorophenyl)-1H-1,2,3-triazol-1-yl)tetrahydro-2H-pyran-3,5-diyl diacetate [Example 2.58.203S.] | 0.1 µM |  | 0.03 µM | 
5 | (R)-2-(((2S,3R,4S,5R,6R)-3,5-Dihydroxy-6-(hydroxymethyl)-4-(4-(3,4,5-trifluorophenyl)-1H-1,2,3-triazol-1-yl)tetrahydro-2H-pyran-2-yl)thio)-2-(1-hydroxycyclohexyl)-N-methyl-N-(pyridin-2-ylmethyl)acetamide [Example 2.39.224R.] | 2.82 µM |  |  | 1.4 µM
6 | (R)-N-Cyclobutyl-2-(4,4-difluoro-1-hydroxycyclohexyl)-2-(((2S,3R,4S,5R,6R)-3,5-dihydroxy-6-(hydroxymethyl)-4-(4-(3,4,5-trifluorophenyl)-1H-1,2,3-triazol-1-yl)tetrahydro-2H-pyran-2-yl)thio)-N-methylacetamide [Example 2.44.206R.] | 1.48 µM |  |  | 0.44 µM
7 | (S)-2-(4,4-Difluoro-1-hydroxycyclohexyl)-2-(((2S,3R,4S,5R,6R)-3,5-dihydroxy-6-(hydroxymethyl)-4-(4-(3,4,5-trifluorophenyl)-1H-1,2,3-triazol-1-yl)tetrahydro-2H-pyran-2-yl)thio)-1-(piperidin-1-yl)ethan-1-one [Example 2.44.208S.] | 0.03 µM |  |  | 0.02 µM
8 | (S)-2-(((2S,3R,4S,5R,6R)-3,5-Dihydroxy-6-(hydroxymethyl)-4-(4-(3,4,5-trifluorophenyl)-1H-1,2,3-triazol-1-yl)tetrahydro-2H-pyran-2-yl)thio)-2-(1-hydroxycyclohexyl)-N-methyl-N-(pyridin-2-ylmethyl)acetamide [Example 2.39.224S.] | 0.07 µM |  |  | 0.06 µM
9 | (S)-N-Cyclobutyl-2-(4,4-difluoro-1-hydroxycyclohexyl)-2-(((2S,3R,4S,5R,6R)-3,5-dihydroxy-6-(hydroxymethyl)-4-(4-(3,4,5-trifluorophenyl)-1H-1,2,3-triazol-1-yl)tetrahydro-2H-pyran-2-yl)thio)-N-methylacetamide [Example 2.44.206S.] | 0.19 µM |  |  | 0.04 µM
10 | N-Cyclopropyl-4-(2-(ethyl(methyl)amino)-1-(((2S,3R,4S,5R,6R)-5-hydroxy-6-(hydroxymethyl)-3-methoxy-4-(4-(3,4,5-trifluorophenyl)-1H-1,2,3-triazol-1-yl)tetrahydro-2H-pyran-2-yl)thio)-2-oxoethyl)-4-hydroxypiperidine-1-carboxamide [Example 2.49.226.I.] | 0.18 µM |  | 0.1 µM | 
